US10508077B2 (FORMA Therapeutics, Inc., priority 2015, dated 2019)

Molecular target: T1, Full length human recombinant HDAC8 protein (Homo sapiens, UniProt Q9BY41)
T1 construct: Full length human recombinant HDAC8 protein was expressed in baculoviral system; made in house
T1 sequence (Q9BY41 1-377): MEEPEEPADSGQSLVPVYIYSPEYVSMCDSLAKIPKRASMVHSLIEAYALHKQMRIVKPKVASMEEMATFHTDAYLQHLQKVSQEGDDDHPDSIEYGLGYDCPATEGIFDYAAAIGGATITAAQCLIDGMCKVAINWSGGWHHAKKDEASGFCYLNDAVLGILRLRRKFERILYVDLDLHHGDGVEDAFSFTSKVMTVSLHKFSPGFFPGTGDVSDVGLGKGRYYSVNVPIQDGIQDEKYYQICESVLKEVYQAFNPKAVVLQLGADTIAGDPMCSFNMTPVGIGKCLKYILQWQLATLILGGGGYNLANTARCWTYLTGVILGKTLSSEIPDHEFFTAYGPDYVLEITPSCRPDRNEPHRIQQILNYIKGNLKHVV
Experiment: In vitro histone deacetylase assay: enzymatic HDAC8 assay, electrophoretic mobility shift
Format: biochemical
Conditions: substrate RHKK(Ac)-NH2, 1 nM enzyme, compounds listed under IC50 range headings
How it was run: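 Readout was microfluidic mobility-shift separation of deacetylated product from fluorescent RHKK(Ac)-NH2 substrate (2 µM), after reaction with 1 nM recombinant full-length human HDAC8 at 25 °C, pH 7.5, stopped with SDS. Twelve 3-fold-spaced concentrations tested; product/sum ratios normalized to controls and fitted with a 4-parameter model for IC50.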

Row | Structure (SMILES) | IC50 [nM]
1 | Cc1oc(-c2ccc(Cl)cc2)cc1C(=O)Nc1ccccc1/C=C/C(=O)NO [Example I-272, (E)-5-(4-chlorophenyl)-N-(2-(3-(hydroxyamino)-3-oxoprop-1-en-1-yl)phenyl)-2-methylfuran-3-carboxamide] | < 1000
2 | CC(C)S(=O)(=O)NC1CCN(c2ccccc2/C=C/C(=O)NO)CC1 [Example I-26] | 1000 to 10000
3 | O=C(/C=C/c1ccccc1NC(=O)c1ccc(Cn2nnc3ccccc32)cc1)NO [Example I-287, (E)-4-((1H-benzo[d][1,2,3]triazol-1-yl)methyl)-N-(2-(3-(hydroxyamino)-3-oxoprop-1-en-1-yl)phenyl)benzamide] | < 1000
4 | CC(CN1CCN(c2ccccc2/C=C/C(=O)NO)CC1)c1ccccc1 (centres unmarked) [Example I-300, (E)-N-hydroxy-3-(2-(4-(2-phenylpropyl)piperazin-1-yl)phenyl)acrylamide] | < 1000
5 | CC(C)(C)OC(=O)N1CCC2(CC1)CCN(c1ccccc1/C=C/C(=O)NO)C2 [Example I-111, tert-butyl (E)-2-(2-(3-(hydroxyamino)-3-oxoprop-1-en-1-yl)phenyl)-2,8-diazaspiro[4.5]decane-8-carboxylic] | < 1000
6 | O=C(/C=C/c1ccccc1N1CCNCC1)NO [Example I-59, (E)-N-hydroxy-3-(2-(piperazin-1-yl)phenyl)acrylamide 2,2,2-trifluoroacetate] | < 1000
7 | O=C(/C=C/c1ccccc1C(=O)N1CCN(CCc2ccccc2)CC1)NO [II-21, (E)-N-hydroxy-3-(2-(4-phenethylpiperazine-1-carbonyl)phenyl)acrylamide] | < 1000
8 | O=C(/C=C/c1ccccc1C(=O)Nc1ccc(-c2ccccc2)c(C(F)(F)F)c1)NO [II-1] | 1000 to 10000
9 | O=C(/C=C/c1ccccc1N1CCN(C(=O)C2(c3ccc(Cl)cc3)CC2)CC1)NO [Example I-294, (E)-3-(2-(4-(1-(4-chlorophenyl)cyclopropane-1-carbonyl)piperazin-1-yl)phenyl)-N-hydroxyacrylamide] | < 1000
10 | CC(C(=O)Nc1ccccc1/C=C/C(=O)NO)N1CCS(=O)(=O)CC1 (centres unmarked) [Example I-63, (E)-3-(2-(2-(1,1-dioxidothiomorpholino)propanamide)phenyl)-N-hydroxyacrylamide] | < 1000
11 | O=C(/C=C/c1ccccc1N1CCN(C(=O)c2ccc3[nH]nnc3c2)CC1)NO [Example I-215, (E)-3-(2-(4-(1H-benzo[d][1,2,3]triazole-5-carbonyl)piperazin-1-yl)phenyl)-N-hydroxyacrylamide] | < 1000
12 | CC(C)c1ccc(S(=O)(=O)NC2CCN(c3ccccc3/C=C/C(=O)NO)CC2)cc1 [Example I-225, (E)-N-hydroxy-3-(2-(4-((4-isopropylphenyl)sulfon-amido)piperidin-1-yl)phenyl)acrylamide] | < 1000
13 | COc1cc(CC(=O)N2CCN(c3ccccc3/C=C/C(=O)NO)CC2)ccc1O [Example I-203, (E)-N-hydroxy-3-(2-(4-(2-(4-hydroxy-3-methoxyphenyl)acetyl)piperazin-1-yl)phenyl)acrylamide] | < 1000
14 | Cn1nc(C(F)(F)F)cc1-c1ccc(C(=O)Nc2ccccc2/C=C/C(=O)NO)s1 [Example I-78, (E)-N-(2-(3-(hydroxyamino)-3-oxoprop-1-en-1-yl)phenyl)-5-(1-methyl-3-(trifluoromethyl)-1H-pyrazol-5-yl)thiophene-2-carboxamide] | < 1000
15 | O=C(/C=C/c1ccccc1N1CCN(Cc2nc3ccccc3s2)CC1)NO [Example I-189, (E)-3-(2-(4-(benzo[d]thiazol-2-ylmethyl)piperazin-1-yl)phenyl)-N-hydroxyacrylamide] | < 1000
16 | O=C(/C=C/c1ccccc1N1CCC(NC(=O)Cc2ccc(F)cc2)CC1)NO [Example I-331, (E)-3-(2-(4-(2-(4-fluorophenyl)acetamido)piperidin-1-yl)phenyl)-N-hydroxyacrylamide] | < 1000
17 | CSCC(=O)N1CCN(c2ccccc2/C=C/C(=O)NO)CC1 [Example I-194, (E)-N-hydroxy-3-(2-(4-(2-(methylthio)acetyl)piper-azin-1-yl)phenyl)acrylamide] | < 1000
